Here are results for one molecule from patent US20230059009A1, “INHIBITORS OF LIN28 AND METHODS OF USE THEREOF” (The Regents of the University of California, priority 2019, published 2023).

Series [1] has as its system LIN28B-expressing Ewing Sarcoma (EwS). As to conditions: recent report (72); cited from earlier work.
The subject of the next series is SW620. In words: Cell viability, CTG, SW620. In kind it is cell-based. As to conditions: SW620 (Colon). The method, then:
To measure cell viability, cell titer glow (CTG, Promega CellTiter-Glo 2.0 Assay) and MTT assays (SigmaAldrich, Cell Proliferation Kit I) were performed. Briefly, cells were serum starved overnight prior to seeding in 96-well plates. Following 24 h incubation, cells were treated with increasing concentrations of JGJ compounds for 96 hr. At assay read-out, CellTiter-Glo reagent was added and luminescence was measured after 10-minutes incubation at room temperature. For the MTT assay, MTT labeling reagent was added and incubated for 4 h. Subsequently, medium was removed and 50 μL DMSO was added to solubilize the crystals, and absorbance was measured at 570 nm. Cell viability was calculated as (Sample-Background)/(Control-Background). Current standard of care drugs, Enzalutamide, Palbociclib and Cetuximab were used as comparative controls.

The subject of another series is CD34+ AML pt. #13 cells. Kind of series: CFC assay, AML pt #13 CD34+ cells vs healthy CD34+ BM cells. In kind it is cell-based, human. As to conditions: AML pt #13 vs healthy donor CD34+ cells; 80-120 μM.
The target in a further series is LIN28B protein (Homo sapiens, UniProt Q6ZN17). In words: Western blot of LIN28B protein levels in AML cells. Conditions: Kasumi-1 and THP-1; 1632 120-160 μM.
A further series has as its system MOLM-13 (no LIN28B). In words: Subcutaneous MOLM-13 AML xenograft. In kind it is in vivo. Conditions: MOLM-13 subQ in NSG mice, 100 mg/kg IP every other day.
Series [2] can be described thus: Tolerability / MTD in healthy C57BL/6 mice. The method, then: Next, the tumor suppressive effect of LN1632 in vivo was investigated. The maximum tolerated dose (MTD) was evaluated in healthy female C57Bl/6 mice.
The target in a further series is T1, PRPF31 (Homo sapiens, UniProt Q8WWY3).
T1 sequence (Q8WWY3 1-499): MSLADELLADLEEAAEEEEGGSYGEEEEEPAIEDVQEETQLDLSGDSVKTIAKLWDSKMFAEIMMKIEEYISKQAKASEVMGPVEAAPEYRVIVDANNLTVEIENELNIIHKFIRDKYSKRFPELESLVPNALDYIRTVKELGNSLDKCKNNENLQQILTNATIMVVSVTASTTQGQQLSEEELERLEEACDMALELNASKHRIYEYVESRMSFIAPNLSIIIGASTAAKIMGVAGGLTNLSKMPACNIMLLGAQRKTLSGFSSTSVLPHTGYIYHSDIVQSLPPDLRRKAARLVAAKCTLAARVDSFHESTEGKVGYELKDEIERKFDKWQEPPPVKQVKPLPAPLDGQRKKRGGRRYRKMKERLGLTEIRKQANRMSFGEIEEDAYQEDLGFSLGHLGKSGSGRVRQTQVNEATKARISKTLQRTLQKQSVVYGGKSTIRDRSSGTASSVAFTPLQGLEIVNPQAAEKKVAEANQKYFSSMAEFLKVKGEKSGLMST
In words: MS-CETSA and IP-MS target engagement. In kind it is binding. More on the design: endogenous in cells; host or cells: Kasumi-1 cell lysate. The procedure: Mass spectrometry cellular thermal shift assay (MS-CETSA, FIG. 12A) as described in (75), and immunoprecipitation using biotinylated LN1632 (FIG. 12B) were performed. […] PRPF31 is recruited to introns where its highly conserved Nop-domain coordinates the U4 snRNA—15.5K protein interaction. Subsequently, PRPF31 stabilizes the U4/U6.U5 tri-snRNP by concomitantly interacting with PRPF6 and induces the transition of the spliceosomal complex to the activated state (78).

The subject of a further series is LSCs. In words: Colony forming capacity (CFC) of iMLL-AF9 LT-HSC derived LSCs. In kind it is cell-based, mouse. Conditions: 200 nM Ara-C or 30 μM 1632, 48 h. The text has this: In addition, Lin28 was independently found to be a key driver in MLL-associated leukemias (56). In order to further characterize the role of Lin28/let-7 in regulating AML, LSC proliferation and therapy resistance in vivo, we used a doxycycline (DOX) inducible, transgenic mouse model for MLL-AF9-driven AML (iMLL-AF9 (57)). In this model, long-term HSC (LT-HSC, Lin^−CD34^−[…] c-Kit^+ CD150^+ CD48^−) derived AML blasts closely mirror an LSC-like phenotype resulting in a particularly aggressive, Cytarabine (Ara-C) resistant AML (57). […] Moreover, relapsed AML cells arising from rLSCs after treatment with Ara-C (100 mg/kg) at d+60 were even further enriched in Lin28b expression (FIG. 2B). Additionally, levels of both, let-7a and let-7b miRNAs, negatively correlated with increased Lin28b in rLSCs (FIG. 2C) (10, 39). Our findings are consistent with papers reporting that increased Lin28 correlates with disease recurrence post chemotherapy in colon and liver cancer stem cells (22, 58).
As Lin28 is overexpressed human AML, LSCs and rLSCs, we sought to determine if genetic Lin28b or pharmacologic Lin28/let-7 inhibition via LN1632 can abrogate proliferation of LSCs and thus overcome their therapy resistance. […]

The subject of series [3] is let-7 target genes / MYC target gene signatures. Kind of series: RNA sequencing in Kasumi-1 cells. Format: cell-based, human. Conditions: 40 μM or 100 μM LN1632 vs control. The text has this: To measure the complete degree to which LN1632 regulates gene expression, we carried out RNA sequencing (RNAseq) in LSC-like Kasumi-1 cells. […] Importantly, we confirmed this gene expression pattern in primary AML cells from three relapsed patients (validated for LIN28B overexpression compared to healthy WBM). […] This is important because NFκB1, regulated by let-7 through IL6 (23) is, together with other BCL-2 family members (BAX, BCL2L15 and BMF, FIG. 5A), a well characterized gene associated with unique properties of LSC survival and AML relapse (45, 59, 60). […] We next explored the effect of LN1632 on primary AML cells.
To determine the degree to which LN1632 regulates gene expression, RNA sequencing was performed in human Kasumi-1 AML cells. […] In addition, ingenuity pathway analysis predicted suppression of upstream signaling molecules IL6 and MYC (FIG. 9C).

Molecules are shown by their SMILES. Entries after “also recorded” stand apart in the source; their conditions may differ.

LIN28B protein, sequence (Q6ZN17 whole entry): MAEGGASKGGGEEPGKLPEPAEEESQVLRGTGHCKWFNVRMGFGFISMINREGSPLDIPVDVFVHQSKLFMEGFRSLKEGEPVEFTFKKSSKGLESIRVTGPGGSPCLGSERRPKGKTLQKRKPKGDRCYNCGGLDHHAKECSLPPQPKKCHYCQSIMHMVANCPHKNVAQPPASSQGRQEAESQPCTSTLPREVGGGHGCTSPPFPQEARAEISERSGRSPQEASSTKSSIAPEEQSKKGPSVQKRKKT
Method for LIN28B protein: (§1) Thus, we subcutaneously (subQ) implanted THP-1 (high LIN28B) cells or MOLM-13 (no LIN28B) into NSG mice and 12 d later (tumor size=40 mm^2) started administration of 1632 IP at 100 mg/kg every other day.
Method for MOLM-13 (no LIN28B): as §1

Turning to `CC(=O)N(C)c1cccc(-c2ccc3nnc(C)n3n2)c1` [LN1632], in series [1], the “Suppression of Ewing Sarcoma” value was “selectively suppresses LIN28B-expressing Ewing Sarcoma (EwS) but not LIN28B depleted EwS”. In addition, in the series on SW620, the IC50 is 191 µM. The “Colony formation (CFC)” value in the series on CD34+ AML pt. #13 cells is “affects colony formation of CD34^+ AML pt. #13 cells significantly more than healthy CD34^+BM cells”. In addition, the LIN28B protein levels entry on LIN28B protein is reported as “inhibits LIN28B protein expression; also recorded: dose-dependently decreases LIN28B protein levels”. In the series on MOLM-13 (no LIN28B), the Tumor growth entry was “minimal effect on tumor growth; also recorded: significantly reduced tumor growth in THP-1 but not MOLM-13”. Also, in [2] (100 mg/kg daily +12 d then every other day +9 d, at +21 d), the Weight gain result was “normal weight gain; also recorded: no significant changes in weight gain”. The “Complete blood count (CBC) profile” value in series [2] (100 mg/kg daily for +12 d then every other day for +9 d, female C57Bl/6 mice) is recorded as “normal complete blood count (CBC) profile, without any leukopenia or thrombocytopenia, only mild anemia”. The Tolerability entry in [2] (100 mg/kg every other day for 21 d, healthy C57BL/6 mice) is listed as “non-toxic, well tolerated”. In series [2] (mouse, in vivo), the “Tolerability (MTD evaluation)” value is “well tolerated”. Further, on PRPF31, the “Interaction partners by MS-CETSA and immunoprecipitation” value is “interacts with additional RNA-binding proteins, in particular pre-mRNA processing factor 31”. Moreover, the “Tm shift (MS-CETSA)” value on PRPF31 (Kasumi-1 cell lysate) is recorded as “induces Tm shift of endogenous PRPF31”. Moreover, the “IP-MS capture with biotinylated LN1632, competitive elution” value on PRPF31 (n=3) is given as “captures PRPF31”. Besides, in the series on LSCs, the “Colony forming capacity cell numbers (CFCs) of LSCs” value is listed as “significantly abrogated CFCs of LSCs”. In series [3], the “Gene expression (RNAseq)” value is on record as “significant downregulation of a panoply of direct let-7 target genes; also recorded: significantly downregulated genes of the HALLMARK_MYC-TARGETS_V1 gene signature”.
